Assay results taken from US7045617B2, “Bisbubstrate inhibitors of kinases” (priority 2000, dated 2006).
Where two headings read alike, the source gives them in different places. Where a SMILES comes first, the peptide text is derived from it. [ ]: non-standard residue; d: D form. The star is where a group is joined. X1 = Nc1ncnc2c1ncn2[C@@H]1O[C@H](COP(=O)(O)OP(=O)(O)OP(=O)(O)SCC(=O)*)[C@@H](O)[C@H]1O; Phe(4-NH2) = Nc1ccc(C[C@H](N)C(=O)O)cc1; Dap = NC[C@H](N)C(=O)O

What was measured:
[1] = target: activated recombinant IRK (insulin receptor kinase) (Homo sapiens, UniProt P06213); experiment: Steady-state kinetic analysis of IRK inhibition (kinase assay); format: biochemical; conditions: for binding energy: binding to IRK
Sequence of activated recombinant IRK (insulin receptor kinase) (P06213 1005-1310 limits assumed): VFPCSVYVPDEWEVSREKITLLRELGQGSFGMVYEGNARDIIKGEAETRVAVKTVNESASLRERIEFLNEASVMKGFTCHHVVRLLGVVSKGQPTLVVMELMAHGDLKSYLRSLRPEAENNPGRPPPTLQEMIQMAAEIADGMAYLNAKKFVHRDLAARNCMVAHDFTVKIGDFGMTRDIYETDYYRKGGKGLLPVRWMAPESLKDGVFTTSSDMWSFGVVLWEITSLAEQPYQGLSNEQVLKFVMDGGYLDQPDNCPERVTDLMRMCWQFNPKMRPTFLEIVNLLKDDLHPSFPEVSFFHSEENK
Experimental: FIG. 2. […] Assays were carried out using activated recombinant IRK as described previously. 6 a, E/V vs. 1/ATP in the presence of varying. Conditions: fixed IRS727 concentration ([…]), 20 mM MgCl2, 0.5 mM DTT, 6 nM IRK, 0.05% bovine serum albumin, Tris-Acetate pH 7, 10 min reaction time. b, E/V vs. 1/IRS727 in the presence of varying. Conditions same as for a except fixed ATP ([…]), 8 nM IRK and 5 min reaction time.
v=Vm(S)/[Km(1+I/Ki)+S]; v=initial velocity, Vm=maximal velocity, S=substrate concentration, Km=Michaelis constant. […] Conditions: Incubation of […] +/−5 mM 2 for 10 min in reaction buffer (20 mM MgCl2, 0.5 mM DTT, 0.05% BSA, 50 mM Tris-Acetate, pH 7) then dilute 1:50 into reaction buffer containing 1 mM ATP and […] peptide6 IRS939 and measure conversion by HPLC at times shown. To determine koff, data were fit to the equation^17: […]
Assays were carried out using activated recombinant IRK as described previously^6. For E/V vs. 1/ATP plot the conditions were: […] IRS727 concentration, 20 mM MgCl2, 0.5 mM DTT, 6 nM IRK, 0.05% bovine serum albumin, 50 mM Tris-Acetate pH 7, 10 min reaction time. For E/V vs. 1/IRS727 in the conditions were the same except fixed ATP ([…]) was employed, 8 nM IRK and 5 min reaction time.
v=Vm(S)/[Km(1+I/Ki)+S]; v=initial velocity, Vm=maximal velocity, S=substrate concentration, Km=Michaelis constant.

Csk = Csk (Homo sapiens, UniProt P41240); experiment: Inhibition of protein tyrosine kinase Csk; format: biochemical; conditions: read-out: Km (ATP)
Sequence of Csk (P41240 whole entry, species assumed): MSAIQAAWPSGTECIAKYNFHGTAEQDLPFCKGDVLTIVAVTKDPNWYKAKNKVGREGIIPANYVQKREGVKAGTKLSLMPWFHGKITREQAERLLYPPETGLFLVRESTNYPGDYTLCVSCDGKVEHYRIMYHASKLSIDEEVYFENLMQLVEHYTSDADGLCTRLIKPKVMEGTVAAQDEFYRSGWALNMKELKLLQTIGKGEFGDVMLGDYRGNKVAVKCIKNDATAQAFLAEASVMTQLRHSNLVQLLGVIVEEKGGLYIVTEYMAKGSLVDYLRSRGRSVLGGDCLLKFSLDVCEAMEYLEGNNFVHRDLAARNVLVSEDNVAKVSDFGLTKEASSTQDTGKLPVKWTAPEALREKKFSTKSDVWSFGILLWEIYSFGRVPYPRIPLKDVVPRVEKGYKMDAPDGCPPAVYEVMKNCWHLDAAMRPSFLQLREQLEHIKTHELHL
Experimental: The specificity of inhibition was also tested by assaying 2 as an inhibitor of the protein tyrosine kinase Csk18. The peptide binding selectivity for Csk is quite different from IRK, and the IRS727 peptide moiety would be predicted to bind poorly to this enzyme^19. […] Thus the bisubstrate analog approach should allow for kinase selectivity based in part on peptide sequence.

[2] = target: T1, recombinant mouse PKA (catalytic subunit) (Mus musculus, UniProt P05132); experiment: PKA inhibition assay (Calbiochem kit, Dixon plot); format: biochemical; conditions: preliminary assays
T1 construct: purchased Calbiochem
Experimental: Reagents from Calbiochem's Protein Kinase A kit were used to perform the inhibition assays and recombinant mouse PKA (catalytic subunit) was also purchased from Calbiochem (enzyme concentration was established by Bradford analysis). A 0.76 mM stock solution of kemptide-ATPγS conjugate was prepared and used to make serial dilutions into an aqueous MgCl2 solution (53 mM), producing a range of inhibitor concentrations from 144 uM to 1.4 μM with Mg2+ concentration of 47.7 mM. These were further diluted into water to produce a range of inhibitor solutions between 51 μM and 507 nM. An 11.25 μL aliquot from each of these solutions was pre-incubated with 7.5 μL of a 1.75 nM PKA enzyme solution (750 ug/uL bovine serum albumin) for 10 minutes at 30° C. after which 12.5 μL of pre-incubation mix was added to 12.5 μL of reaction mix (30 μM cold ATP, 50 μM biotinylated kemptide substrate, 0.04 uCi/μL γP-32 ATP, 80 mM Tris-HCl, 10 mM MgCl2, pH 7.5) to initiate the enzymatic reaction. […] The columns were placed in scintillation vials and radioactivity was measured using a scintillation counter.

[3] = Stability of compound in aqueous solution; format: physicochemical
Description: The protected peptide was assembled using solid-phase peptide synthesis using Fmoc chemistry, in which the single tyrosine of IRS727 was replaced with commercially available nitrophenylalanine. The nitro group was reduced with SnCl2 and the aniline function was bromoacetylated via standard coupling conditions. The peptide was cleaved from the resin and deblocked with trifluoroacetic acid, water, and thioanisole and purified by reversed phase HPLC. […] The peptide-ATP conjugate 2 was purified by reversed phase HPLC and characterized by electrospray mass spectrometry and 1H NMR.

“adenosine 5′-O-3-thiotriphosphate [ATPγS, reference compound]” showed a binding energy [1] of 5.1 kcal/mol and a Ki ([1]; linear competitive versus ATP, read-out: Ki versus ATP) of 210 µM.

Nc1ncnc2c1ncn2[C@@H]1O[C@H](COP(=O)(O)OP(=O)(O)OP(=O)(O)O)[C@@H](O)[C@H]1O [ATP, reference compound] gave a Km ([1]; substrates of IRK, read-out: Km app) of 71 µM and a Km (Csk) of 195 µM.

In the case of Nc1ncnc2c1ncn2[C@@H]1O[C@H](COP(=O)(O)OP(=O)(O)OP(=O)(O)SCC(=O)Nc2ccccc2)[C@@H](O)[C@H]1O [Compound 3], the Ki [1] is reported as 114 µM, the “fold tighter binding than ATP-γS alone” value [1] is reported as 2 fold and the “fold weaker as an inhibitor than 2” value [1] is reported as “approximately 300 fold”. For the same compound, the “mode of inhibition of IRK” value [1] was “linear competitive inhibitor of IRK versus ATP”.

With CC(=O)N[C@@H](CC(C)C)C(=O)N[C@@H](CCCNC(=N)N)C(=O)N[C@@H](CCCNC(=N)N)C(=O)N[C@@H](C)C(=O)N[C@@H](CNC(=O)CSP(=O)(O)OP(=O)(O)OP(=O)(O)OC[C@H]1O[C@@H](n2cnc3c(N)ncnc32)[C@H](O)[C@@H]1O)C(=O)N[C@@H](CC(C)C)C(=O)NCC(=O)O [kemptide-ATPγS conjugate] (Ac-LRRA[Dap](X1)LG-OH) the “inhibition of PKA (in words)” value [2] was “inhibitory to PKA” and the Ki ([2]; reversible competitive inhibition model, read-out: calculated Ki versus ATP) was 9.6 µM.

In the case of CSCC[C@H](NC(=O)[C@H](Cc1ccc(NC(=O)CSP(=O)(O)OP(=O)(O)OP(=O)(O)OC[C@H]2O[C@@H](n3cnc4c(N)ncnc43)[C@H](O)[C@@H]2O)cc1)NC(=O)[C@H](CC(=O)O)NC(=O)CNC(=O)[C@@H](NC(=O)[C@H](C)NC(=O)[C@@H]1CCCN1C(=O)[C@H](CC(C)C)NC(=O)[C@H](CCCCN)NC(=O)[C@H](CCCCN)NC(=O)[C@H](CCCCN)NC(C)=O)[C@@H](C)O)C(=O)N[C@@H](CC(N)=O)C(=O)N[C@@H](CCSC)C(=O)N[C@@H](CO)C(=O)N1CCC[C@H]1C(=O)N[C@H](C(=O)NCC(=O)N[C@@H](CC(=O)O)C(=O)O)C(C)C [Compound 2] (Ac-KKKLPATGD[Phe(4-NH2)](X1)MNMSPVGD-OH), the “mode of inhibition of IRK” value [1] is reported as “linear competitive inhibitor versus both nucleotide (FIG. 2a) and peptide (FIG. 2b) substrates”, the binding energy [1] is reported as 8.9 kcal/mol and the half-life ([3]; acidic solution (pH 2), read-out: half life of decomposition (converted)) is reported as roughly 2 h. For the same compound, the storage stability ([3]; frozen solution at −80° C. for several weeks) was “without detectable decomposition” and the “time stable in aqueous solution” value ([3]; neutral pH, room temperature) was greater than 12 h.
